Measured values from US7223771B2, “Tricyclic imidazopyridines” (Altana Pharma AG, priority 2001, dated 2007).

Each molecule was assayed on pentagastrin-stimulated acid secretion of the perfused rat stomach. Details: anesthetized CD rat, dose 3.0 μmol/kg i.d. (intraduodenal).
From the text: Testing of the Secretion-Inhibiting Action on the Perfused Rat Stomach
The abdomen of anesthetized rats (CD rat, female, 200–250 g; 1.5 g/kg i.m. urethane) was opened after tracheotomy by a median upper abdominal incision and a PVC catheter was fixed transorally in the esophagus and another via the pylorus such that the ends of the tubes just projected into the gastric lumen. The catheter leading from the pylorus led outward into the right abdominal wall through a side opening.
After thorough rinsing (about 50–100 ml), warm (37° C.) physiological NaCl solution was continuously passed through the stomach (0.5 ml/min, pH 6.8–6.9; Braun-Unita I). The pH (pH meter 632, glass electrode EA 147; φ=5 mm, Metrohm) and, by titration with a freshly prepared 0.01N NaOH solution to pH 7 (Dosimat 665 Metrohm), the secreted HCl were determined in the effluent in each case collected at an interval of 15 minutes.
The gastric secretion was stimulated by continuous infusion of 1 μg/kg (=1.65 ml/h) of i.v. pentagastrin (left femoral vein) about 30 min after the end of the operation (i.e. after determination of 2 preliminary fractions). The substances to be tested were administered intraduodenally in a 2.5 ml/kg liquid volume 60 min after the start of the continuous pentagastrin infusion.
The body temperature of the animals was kept at a constant 37.8–38° C. by infrared irradiation and heat pads (automatic, stepless control by means of a rectal temperature sensor).

SMILES | Inhibition of acid secretion
CCN(CC)C(=O)c1cn2c(C)c(C)nc2c2c1CCC(c1ccccc1)O2 (stereo not drawn) [Example 1, 2,3-Dimethyl-9-phenyl-7H-8,9-dihydro-pyrano-[2,3-c]-N-(diethyl)imidazo[1,2-a]pyridine-6-carboxamide] | 100%
CCOC(=O)c1cn2c(C)c(C)nc2c2c1CCC(c1ccccc1)O2 (stereo not drawn) [Example 2, Ethyl 2,3-dimethyl-9-phenyl-7H-8,9-dihydro-pyrano[2,3-c]-imidazo[1,2-a]pyridine-6-carboxylate] | 100%
Cc1nc2c3c(c(C(=O)N(C)C)cn2c1C)CCC(c1ccccc1)O3 (stereo not drawn) [Example 3, 2,3-Dimethyl-9-phenyl-7H-8,9-dihydro-pyrano[2,3-c]-imidazo[1,2-a]pyridine-6-(N,N-dimethyl)carbamide] | 100%
